# ChEMBL document CHEMBL3885881, “DrugMatrix”
# Values joined by “and” are separate entries in the source; they are usually repeats but may differ in a detail not shown here. Equal entries are not always repeated.
# Organism: Rattus norvegicus
# Test: DrugMatrix - Regimen: Daily Repeat
# Type: toxicity, organism-based, Sprague-Dawley
# Design: regimen Daily Repeat, gender Male, age 6-8 weeks
# Settings: in vivo, ip, route intraperitoneal, vehicle 100 % SALINE; for ABSOLUTE BASOPHIL / ABSOLUTE LYMPHOCYTE / ABSOLUTE MONOCYTE / ABSOLUTE SEGMENTED NEUTROPHIL / BASOPHIL / EOSINOPHIL / ERYTHROCYTE COUNT / HEMATOCRIT / HEMOGLOBIN / LEUKOCYTE COUNT / LYMPHOCYTE / MEAN CORPUSCULAR HEMOGLOBIN / MEAN CORPUSCULAR HEMOGLOBIN CONCENTRATION / MEAN CORPUSCULAR VOLUME / MONOCYTE / NEUTROPHIL / NUCLEATED RED BLOOD CELLS / PLATELET COUNT / ABSOLUTE EOSINOPHIL: tissue Blood; for ALANINE AMINOTRANSFERASE / ALBUMIN / ALKALINE PHOSPHATASE / ASPARTATE AMINOTRANSFERASE / BLOOD UREA NITROGEN / CARBON DIOXIDE / CHLORIDE / CHOLESTEROL / CREATINE PHOSPHOKINASE / CREATININE / GLUCOSE / LACTATE DEHYDROGENASE / LIPASE / PHOSPHORUS / POTASSIUM / SODIUM / TOTAL BILIRUBIN / TOTAL PROTEIN / URIC ACID: tissue Plasma
# [1] = 0 mg/kg, 72 h, dose level Control, time 3 day
# [2] = 0 mg/kg, 120 h, dose level Control, time 5 day
# [3] = 0 mg/kg, […], dose level Control, time 7 day
# [4] = 16 mg/kg, 72 h, dose level Low, time 3 day
# [5] = 16 mg/kg, […], dose level Low, time 7 day
structure (smiles),measurement,setting,value
C=CCO [ALLYL ALCOHOL],ABSOLUTE BASOPHIL,[1],0 CELLS/uL
same,ABSOLUTE LYMPHOCYTE,[1],13949.83 CELLS/uL and 6988.5 CELLS/uL
same,ABSOLUTE MONOCYTE,[1],176.17 CELLS/uL and 88 CELLS/uL
same,ABSOLUTE SEGMENTED NEUTROPHIL,[1],1407.33 CELLS/uL and 1041.83 CELLS/uL
same,BASOPHIL,[1],0%
same,EOSINOPHIL,[1],0% and 0.17%
same,ERYTHROCYTE COUNT,[1],5.29 x10E6/uL and 5.73 x10E6/uL
same,HEMATOCRIT,[1],33.5% and 35.87%
same,HEMOGLOBIN,[1],13.47 G/DL and 13.27 G/DL
same,LEUKOCYTE COUNT,[1],15.53 x10E3/uL and 8.13 x10E3/uL
same,LYMPHOCYTE,[1],89.5% and 85.83%
same,MEAN CORPUSCULAR HEMOGLOBIN,[1],25.5 pg and 23.2 pg
same,MEAN CORPUSCULAR HEMOGLOBIN CONCENTRATION,[1],40.27 G/DL and 37 G/DL
same,MEAN CORPUSCULAR VOLUME,[1],63.33 fL and 62.63 fL
same,MONOCYTE,[1],1.17%
same,NEUTROPHIL,[1],9.33% and 12.83%
same,NUCLEATED RED BLOOD CELLS,[1],0 /100WBC
same,PLATELET COUNT,[1],1100 x10E3/uL and 1294.17 x10E3/uL
same,ALANINE AMINOTRANSFERASE,[1],41.5 u/L and 49.17 u/L
same,ALBUMIN,[1],3.78 G/DL and 4.35 G/DL
same,ALKALINE PHOSPHATASE,[1],267.5 u/L and 415.17 u/L
same,ASPARTATE AMINOTRANSFERASE,[1],77.67 u/L and 88.5 u/L
same,BLOOD UREA NITROGEN,[1],13.67 mg/dL and 14.33 mg/dL
same,CARBON DIOXIDE,[1],28.17 mmol/L and 34.83 mmol/L
same,CHLORIDE,[1],100.67 MEQ/L and 98.5 MEQ/L
same,CHOLESTEROL,[1],70.67 mg/dL and 75.83 mg/dL
same,CREATINE PHOSPHOKINASE,[1],341.83 u/L and 271.83 u/L
same,CREATININE,[1],0.15 mg/dL and 0.19 mg/dL
same,GLUCOSE,[1],169 mg/dL and 148.17 mg/dL
same,LACTATE DEHYDROGENASE,[1],138.5 u/L and 166.33 u/L
same,LIPASE,[1],10.33 u/L and 9.2 u/L
same,PHOSPHORUS,[1],9.6 mg/dL and 10.37 mg/dL
same,POTASSIUM,[1],5.69 MEQ/L and 6.16 MEQ/L
same,SODIUM,[1],140.88 MEQ/L and 143.75 MEQ/L
same,TOTAL BILIRUBIN,[1],0.2 mg/dL and 0.18 mg/dL
same,TOTAL PROTEIN,[1],5.95 G/DL and 6.22 G/DL
same,URIC ACID,[1],1.18 mg/dL and 0.92 mg/dL
same,ABSOLUTE BASOPHIL,[2],0 CELLS/uL
same,ABSOLUTE EOSINOPHIL,[2],9.17 CELLS/uL
same,ABSOLUTE LYMPHOCYTE,[2],6359.17 CELLS/uL
same,ABSOLUTE MONOCYTE,[2],87.33 CELLS/uL
same,ABSOLUTE SEGMENTED NEUTROPHIL,[2],894.33 CELLS/uL
same,BASOPHIL,[2],0%
same,EOSINOPHIL,[2],0.17%
same,ERYTHROCYTE COUNT,[2],5.68 x10E6/uL
same,HEMATOCRIT,[2],35.05%
same,HEMOGLOBIN,[2],13.22 G/DL
same,LEUKOCYTE COUNT,[2],7.35 x10E3/uL
same,LYMPHOCYTE,[2],86.33%
same,MEAN CORPUSCULAR HEMOGLOBIN,[2],23.32 pg
same,MEAN CORPUSCULAR HEMOGLOBIN CONCENTRATION,[2],37.72 G/DL
same,MEAN CORPUSCULAR VOLUME,[2],61.82 fL
same,MONOCYTE,[2],1.17%
same,NEUTROPHIL,[2],12.33%
same,NUCLEATED RED BLOOD CELLS,[2],0 /100WBC
same,PLATELET COUNT,[2],1231 x10E3/uL
same,ALANINE AMINOTRANSFERASE,[2],44.5 u/L
same,ALBUMIN,[2],4.47 G/DL
same,ALKALINE PHOSPHATASE,[2],372.33 u/L
same,ASPARTATE AMINOTRANSFERASE,[2],88.67 u/L
same,BLOOD UREA NITROGEN,[2],14.67 mg/dL
same,CARBON DIOXIDE,[2],35.33 mmol/L
same,CHLORIDE,[2],100.6 MEQ/L
same,CHOLESTEROL,[2],75 mg/dL
same,CREATINE PHOSPHOKINASE,[2],303.83 u/L
same,CREATININE,[2],0.16 mg/dL
same,GLUCOSE,[2],135.83 mg/dL
same,LACTATE DEHYDROGENASE,[2],137.17 u/L
same,LIPASE,[2],9.2 u/L
same,PHOSPHORUS,[2],10.42 mg/dL
same,POTASSIUM,[2],5.9 MEQ/L
same,SODIUM,[2],143.7 MEQ/L
same,TOTAL BILIRUBIN,[2],0.18 mg/dL
same,TOTAL PROTEIN,[2],6.42 G/DL
same,URIC ACID,[2],0.78 mg/dL
same,ABSOLUTE BASOPHIL,[3],0 CELLS/uL
same,ABSOLUTE EOSINOPHIL,[3],12.33 CELLS/uL
same,ABSOLUTE LYMPHOCYTE,[3],8726.33 CELLS/uL
same,ABSOLUTE MONOCYTE,[3],135.33 CELLS/uL
same,ABSOLUTE SEGMENTED NEUTROPHIL,[3],559.33 CELLS/uL
same,BASOPHIL,[3],0%
same,EOSINOPHIL,[3],0.17%
same,ERYTHROCYTE COUNT,[3],5.5 x10E6/uL
same,HEMATOCRIT,[3],34.02%
same,HEMOGLOBIN,[3],13.12 G/DL
same,LEUKOCYTE COUNT,[3],9.43 x10E3/uL
same,LYMPHOCYTE,[3],92.67%
same,MEAN CORPUSCULAR HEMOGLOBIN,[3],23.85 pg
same,MEAN CORPUSCULAR HEMOGLOBIN CONCENTRATION,[3],38.57 G/DL
same,MEAN CORPUSCULAR VOLUME,[3],61.83 fL
same,MONOCYTE,[3],1.33%
same,NEUTROPHIL,[3],5.83%
same,NUCLEATED RED BLOOD CELLS,[3],0 /100WBC
same,PLATELET COUNT,[3],1308.83 x10E3/uL
same,ALANINE AMINOTRANSFERASE,[3],56 u/L
same,ALBUMIN,[3],3.7 G/DL
same,ALKALINE PHOSPHATASE,[3],281.17 u/L
same,ASPARTATE AMINOTRANSFERASE,[3],78.33 u/L
same,BLOOD UREA NITROGEN,[3],15 mg/dL
same,CARBON DIOXIDE,[3],30.5 mmol/L
same,CHLORIDE,[3],103.33 MEQ/L
same,CHOLESTEROL,[3],63.83 mg/dL
same,CREATINE PHOSPHOKINASE,[3],253.33 u/L
same,CREATININE,[3],0.2 mg/dL
same,GLUCOSE,[3],151.17 mg/dL
same,LACTATE DEHYDROGENASE,[3],89 u/L
same,LIPASE,[3],10.33 u/L
same,PHOSPHORUS,[3],9.7 mg/dL
same,POTASSIUM,[3],5.46 MEQ/L
same,SODIUM,[3],146.28 MEQ/L
same,TOTAL BILIRUBIN,[3],0.12 mg/dL
same,TOTAL PROTEIN,[3],6.07 G/DL
same,URIC ACID,[3],0.65 mg/dL
same,ABSOLUTE BASOPHIL,[4],0 CELLS/uL
same,ABSOLUTE EOSINOPHIL,[4],0 CELLS/uL
same,ABSOLUTE LYMPHOCYTE,[4],14529.5 CELLS/uL
same,ABSOLUTE MONOCYTE,[4],274 CELLS/uL
same,ABSOLUTE SEGMENTED NEUTROPHIL,[4],1013.17 CELLS/uL
same,BASOPHIL,[4],0%
same,EOSINOPHIL,[4],0%
same,ERYTHROCYTE COUNT,[4],5.55 x10E6/uL
same,HEMATOCRIT,[4],35.25%
same,HEMOGLOBIN,[4],13.98 G/DL
same,LEUKOCYTE COUNT,[4],15.82 x10E3/uL
same,LYMPHOCYTE,[4],91.67%
same,MEAN CORPUSCULAR HEMOGLOBIN,[4],25.2 pg
same,MEAN CORPUSCULAR HEMOGLOBIN CONCENTRATION,[4],39.7 G/DL
same,MEAN CORPUSCULAR VOLUME,[4],63.53 fL
same,MONOCYTE,[4],1.67%
same,NEUTROPHIL,[4],6.67%
same,NUCLEATED RED BLOOD CELLS,[4],0 /100WBC
same,PLATELET COUNT,[4],1167.33 x10E3/uL
same,ALANINE AMINOTRANSFERASE,[4],46.17 u/L
same,ALBUMIN,[4],3.8 G/DL
same,ALKALINE PHOSPHATASE,[4],266.8 u/L
same,ASPARTATE AMINOTRANSFERASE,[4],66.67 u/L
same,BLOOD UREA NITROGEN,[4],13 mg/dL
same,CARBON DIOXIDE,[4],32.5 mmol/L
same,CHLORIDE,[4],100.2 MEQ/L
same,CHOLESTEROL,[4],68.67 mg/dL
same,CREATINE PHOSPHOKINASE,[4],231.17 u/L
same,CREATININE,[4],0.44 mg/dL
same,GLUCOSE,[4],143.67 mg/dL
same,LACTATE DEHYDROGENASE,[4],122.67 u/L
same,LIPASE,[4],8 u/L
same,PHOSPHORUS,[4],8.67 mg/dL
same,POTASSIUM,[4],6.2 MEQ/L
same,SODIUM,[4],141.52 MEQ/L
same,TOTAL BILIRUBIN,[4],0.18 mg/dL
same,TOTAL PROTEIN,[4],5.57 G/DL
same,URIC ACID,[4],1.13 mg/dL
same,ABSOLUTE BASOPHIL,[5],0 CELLS/uL
same,ABSOLUTE EOSINOPHIL,[5],88.33 CELLS/uL
same,ABSOLUTE LYMPHOCYTE,[5],10357.5 CELLS/uL
same,ABSOLUTE MONOCYTE,[5],213 CELLS/uL
same,ABSOLUTE SEGMENTED NEUTROPHIL,[5],574.5 CELLS/uL
same,BASOPHIL,[5],0%
same,EOSINOPHIL,[5],1%
same,ERYTHROCYTE COUNT,[5],5.67 x10E6/uL
same,HEMATOCRIT,[5],35.32%
same,HEMOGLOBIN,[5],13.55 G/DL
same,LEUKOCYTE COUNT,[5],11.23 x10E3/uL
same,LYMPHOCYTE,[5],91.5%
same,MEAN CORPUSCULAR HEMOGLOBIN,[5],23.88 pg
same,MEAN CORPUSCULAR HEMOGLOBIN CONCENTRATION,[5],38.38 G/DL
same,MEAN CORPUSCULAR VOLUME,[5],62.35 fL
same,MONOCYTE,[5],1.83%
same,NEUTROPHIL,[5],5.67%
same,NUCLEATED RED BLOOD CELLS,[5],0 /100WBC
same,PLATELET COUNT,[5],1370 x10E3/uL
